Measured values taken from patent EP4574817A1 (LoQus23 Therapeutics Limited, priority 2023, dated 2025).

biological target: T1, MutSβ (Homo sapiens, UniProt P20585+P43246); assay: MutSβ ADP Glo Assay; assay type: biochemical; conditions: 20nM MutSβ, 30nM CAG DNA, 25 µM ATP, 2 hours at room temperature
T1 construct: purchased AMRI
Protocol: Biological Example A - MutSβ Assay
• MutSβ (supplied by AMRI) stored at -70°C • ADP Glo Kinase Assay Kit (Promega: V9102) stored at -20°C • ATP (supplied within the ADP Glo Kit) stored at -20°C • 1M KCI (Sigma Aldrich: P9333) stored at 2-8°C • 1 M HEPES pH 7.5 (Gibco: M15630-080) stored at 2-8°C • 1M MgCl2 (Sigma Aldrich: M1028-100mL) stored at 2-8°C • Tween-20 (Sigma Aldrich: P1379) (10% solution) stored at 2-8°C • 500mM DTT (Sigma Aldrich: 10197777001) stored at -20°C • CAG loop DNA for MutSβ (made in house) stored at -20°C • MilliQ water stored at room temperature
• 1. Prepare the buffer fresh each day • 2. Take the enzyme from the freezer, thaw in room temperature water and centrifuge at 13,000 rpm for 10 minutes at 2-8C, then make up enzyme and ATP stocks • 3. Quality Control the multidrop head to a %CV of <2% • 4. Add 3µL of 33.34nM MutSβ and 50.01nM CAG looped DNA solution […] to each well in columns 1 and 3-23 of the plate • 5. Pre-incubate the MutSβ and buffer mix for 10 minutes with the compounds • 6. Wash the multidrop head through with MilliQ water (for at least 30 seconds) • 7. Add 3µL of MutSβ Assay buffer (without enzyme) to columns 2 and 24 for the vehicle controls • 8. Wash the multidrop head through with MilliQ water (for at least 30 seconds) • 9. Add 2µL of 62.5µM ATP to each well of the whole plate, then wash with MilliQ water (for a minimum of 30 seconds) • 10. Centrifuge plate for 1 minute at 1000 rpm • 11. Incubate for 2 hours at room temperature • 12. Add 5µL of ADP Glo reagent to each well of the whole plate and wash the multidrop head with MilliQ water (for a minimum of 30 seconds) • 13. Incubate for 40 minutes at room temperature (minimum requirement) • 14. Add 10µL of Kinase Detection Reagent to each well of the whole plate • 15. Wash the multidrop head with MilliQ water more than 1 minute and then dry • 16. Remove the head and put the cover back on for overnight storage • 17. Incubate for 30 minutes at room temperature (minimum requirement) • 18. Read on a microplate reader

T1 sequence (P43246 whole entry): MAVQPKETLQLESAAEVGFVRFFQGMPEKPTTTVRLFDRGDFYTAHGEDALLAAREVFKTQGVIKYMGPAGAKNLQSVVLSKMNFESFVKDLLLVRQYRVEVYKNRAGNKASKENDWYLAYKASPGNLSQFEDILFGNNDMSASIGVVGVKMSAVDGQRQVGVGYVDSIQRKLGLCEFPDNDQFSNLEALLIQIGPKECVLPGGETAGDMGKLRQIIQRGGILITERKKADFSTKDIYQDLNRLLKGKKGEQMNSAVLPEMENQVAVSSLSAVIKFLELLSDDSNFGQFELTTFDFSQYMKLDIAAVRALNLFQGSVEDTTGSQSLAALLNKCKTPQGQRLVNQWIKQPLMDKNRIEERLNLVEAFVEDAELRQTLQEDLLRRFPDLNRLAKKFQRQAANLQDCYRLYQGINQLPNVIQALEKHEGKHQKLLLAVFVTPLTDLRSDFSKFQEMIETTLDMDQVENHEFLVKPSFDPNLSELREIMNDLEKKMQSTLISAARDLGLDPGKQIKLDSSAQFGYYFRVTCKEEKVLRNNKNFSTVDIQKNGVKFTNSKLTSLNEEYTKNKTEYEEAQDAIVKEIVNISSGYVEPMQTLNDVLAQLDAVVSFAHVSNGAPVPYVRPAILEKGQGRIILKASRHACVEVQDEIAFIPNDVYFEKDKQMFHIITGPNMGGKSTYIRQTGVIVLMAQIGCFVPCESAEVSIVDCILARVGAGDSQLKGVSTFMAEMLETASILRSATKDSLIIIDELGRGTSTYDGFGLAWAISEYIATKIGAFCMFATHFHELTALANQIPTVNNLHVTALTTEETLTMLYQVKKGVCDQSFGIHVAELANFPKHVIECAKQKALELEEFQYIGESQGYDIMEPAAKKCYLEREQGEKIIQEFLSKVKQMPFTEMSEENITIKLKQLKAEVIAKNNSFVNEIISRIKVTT
T1 sequence (P20585 whole entry): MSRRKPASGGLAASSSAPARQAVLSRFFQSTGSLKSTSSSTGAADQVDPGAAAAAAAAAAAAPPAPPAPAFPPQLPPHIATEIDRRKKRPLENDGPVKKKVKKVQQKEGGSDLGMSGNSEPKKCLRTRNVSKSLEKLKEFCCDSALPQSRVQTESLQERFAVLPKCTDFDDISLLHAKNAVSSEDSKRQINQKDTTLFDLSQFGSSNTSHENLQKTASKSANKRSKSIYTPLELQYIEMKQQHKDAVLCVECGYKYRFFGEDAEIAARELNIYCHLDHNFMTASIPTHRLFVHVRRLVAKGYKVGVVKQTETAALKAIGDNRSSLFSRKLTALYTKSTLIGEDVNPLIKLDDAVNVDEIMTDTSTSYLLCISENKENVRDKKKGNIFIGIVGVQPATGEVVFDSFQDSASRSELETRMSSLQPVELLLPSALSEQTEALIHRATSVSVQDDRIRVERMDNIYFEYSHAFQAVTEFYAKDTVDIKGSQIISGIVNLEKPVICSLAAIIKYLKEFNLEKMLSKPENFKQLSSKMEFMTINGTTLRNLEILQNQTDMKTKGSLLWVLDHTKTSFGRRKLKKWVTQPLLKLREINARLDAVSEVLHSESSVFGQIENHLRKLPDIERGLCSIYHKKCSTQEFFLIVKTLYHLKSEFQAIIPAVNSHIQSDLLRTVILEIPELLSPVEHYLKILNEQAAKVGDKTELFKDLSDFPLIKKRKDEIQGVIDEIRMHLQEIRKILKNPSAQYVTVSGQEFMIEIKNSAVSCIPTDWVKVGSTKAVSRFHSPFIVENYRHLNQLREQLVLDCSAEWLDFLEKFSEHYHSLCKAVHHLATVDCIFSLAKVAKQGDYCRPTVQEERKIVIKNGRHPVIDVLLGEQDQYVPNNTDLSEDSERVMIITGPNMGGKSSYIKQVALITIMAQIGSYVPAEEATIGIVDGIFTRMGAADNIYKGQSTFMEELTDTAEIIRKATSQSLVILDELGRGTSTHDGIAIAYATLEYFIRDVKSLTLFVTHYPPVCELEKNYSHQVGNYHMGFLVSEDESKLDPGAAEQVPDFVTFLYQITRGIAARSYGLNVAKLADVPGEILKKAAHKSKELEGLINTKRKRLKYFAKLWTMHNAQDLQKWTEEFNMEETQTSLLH

Row | IC50 | Compound
1 | 1 to 10 µM | Cc1ccc(Cc2sc(NC(=O)COS(N)(=O)=O)nc2C)cc1 [Example 3, 2-((4-methyl-5-(4-methylbenzyl)thiazol-2-yl)amino)-2-oxoethyl sulfamate]
2 | 0.5 to 1 µM | Cc1nc(NC(=O)COS(=O)(=O)N(C)C)sc1Cc1ccc(F)cc1 [Example 4, 2-((5-(4-fluorobenzyl)-4-methylthiazol-2-yl)amino)-2-oxoethyl dimethylsulfamate]
3 | 1 to 10 µM | Cc1ccc(Cc2sc(NC(=O)COS(=O)(=O)NC3CC3)nc2C)cc1 [Example 6, 2-((4-methyl-5-(4-methylbenzyl)thiazol-2-yl)amino)-2-oxoethyl cyclopropylsulfamate]
4 | 0.5 to 1 µM | Cc1ccc(Cc2sc(NC(=O)COS(=O)(=O)N3CCOCC3)nc2C)cc1 [Example 9, 2-((4-methyl-5-(4-methylbenzyl)thiazol-2-yl)amino)-2-oxoethyl morpholine-4-sulfonate]
5 | 1 to 10 µM | CCc1nc(NC(=O)COS(=O)(=O)NC)sc1Cc1ccc(C)cc1 [Example 18, 2-((4-ethyl-5-(4-methylbenzyl)thiazol-2-yl)amino)-2-oxoethyl methylsulfamate]
6 | 1 to 10 µM | Cc1ccc(Cc2sc(NC(=O)COS(=O)(=O)N(C)C)nc2C)cc1 [Example 20, 2-((4-methyl-5-(4-methylbenzyl)thiazol-2-yl)amino)-2-oxoethyl dimethylsulfamate]
7 | 0.5 to 1 µM | Cc1ccc(Cc2sc(NC(=O)COS(=O)(=O)N3CC(F)C3)nc2C)cc1 [Example 21, 2-((4-methyl-5-(4-methylbenzyl)thiazol-2-yl)amino)-2-oxoethyl 3-fluoroazetidine-1-sulfonate]
8 | 1 to 10 µM | Cc1ccc(Cc2sc(NC(=O)COS(=O)(=O)NC(C)C)nc2C)cc1 [Example 23, 2-((4-methyl-5-(4-methylbenzyl)thiazol-2-yl)amino)-2-oxoethyl isopropylsulfamate]
9 | 1 to 10 µM | CNS(=O)(=O)OCC(=O)Nc1nc(C)c(Cc2cccc(C)c2)s1 [Example 24, 2-((4-methyl-5-(3-methylbenzyl)thiazol-2-yl)amino)-2-oxoethyl methylsulfamate]
10 | ≤ 0.5 µM | Cc1ccc(Cc2sc(NC(=O)COS(=O)(=O)N3CCC3)nc2C)cc1 [Example 25, 2-((4-methyl-5-(4-methylbenzyl)thiazol-2-yl)amino)-2-oxoethyl azetidine-1-sulfonate]
11 | 1 to 10 µM | CNS(=O)(=O)OCC(=O)Nc1nc(C)c(Cc2ccc(OC)cc2)s1 [Example 26, 2-((5-(4-methoxybenzyl)-4-methylthiazol-2-yl)amino)-2-oxoethyl methylsulfamate]
12 | 0.5 to 1 µM | COCCN(C)S(=O)(=O)OCC(=O)Nc1nc(C)c(Cc2ccc(C)cc2)s1 [Example 29, 2-((4-methyl-5-(4-methylbenzyl)thiazol-2-yl)amino)-2-oxoethyl (2-methoxyethyl)(methyl)sulfamate]
13 | 1 to 10 µM | CNS(=O)(=O)OCC(=O)Nc1nc(C)c(Cc2ccc(Cl)cc2)s1 [Example 30, 2-((5-(4-chlorobenzyl)-4-methylthiazol-2-yl)amino)-2-oxoethyl methylsulfamate]
14 | 1 to 10 µM | Cc1ccc(Cc2sc(NC(=O)COS(=O)(=O)N3CCCC3)nc2C)cc1 [Example 31, 2-((4-methyl-5-(4-methylbenzyl)thiazol-2-yl)amino)-2-oxoethyl pyrrolidine-1-sulfonate]
15 | 1 to 10 µM | CNS(=O)(=O)OCC(=O)Nc1nc(C)c(Cc2ccc(C(F)(F)F)cc2)s1 [Example 32, 2-((4-methyl-5-(4-(trifluoromethyl)benzyl)thiazol-2-yl)amino)-2-oxoethyl methylsulfamate]
16 | 10 to 50 µM | CNS(=O)(=O)OCC(=O)Nc1nc(C)c(Cc2ccc(C(C)C)cc2)s1 [Example 33, 2-((5-(4-isopropylbenzyl)-4-methylthiazol-2-yl)amino)-2-oxoethyl methylsulfamate]
17 | 1 to 10 µM | CNS(=O)(=O)OCC(=O)Nc1nc(C2CC2)c(Cc2ccc(C)cc2)s1 [Example 36, 2-((4-cyclopropyl-5-(4-methylbenzyl)thiazol-2-yl)amino)-2-oxoethyl methylsulfamate]
18 | 10 to 50 µM | CNS(=O)(=O)OCC(=O)Nc1nc(C(C)C)c(Cc2ccc(C)cc2)s1 [Example 37, 2-((4-isopropyl-5-(4-methylbenzyl)thiazol-2-yl)amino)-2-oxoethyl methylsulfamate]
19 | 1 to 10 µM | CCCNS(=O)(=O)OCC(=O)Nc1nc(C)c(Cc2ccc(C)cc2)s1 [Example 41, 2-((4-methyl-5-(4-methylbenzyl)thiazol-2-yl)amino)-2-oxoethyl propylsulfamate]
20 | 10 to 50 µM | Cc1ccc(Cc2sc(NC(=O)COS(=O)(=O)NC(C)(C)C)nc2C)cc1 [Example 43, 2-((4-methyl-5-(4-methylbenzyl)thiazol-2-yl)amino)-2-oxoethyl tert-butylsulfamate]
21 | 1 to 10 µM | Cc1ccc(Cc2sc(NC(=O)COS(=O)(=O)NCc3ccccc3)nc2C)cc1 [Example 45, 2-((4-methyl-5-(4-methylbenzyl)thiazol-2-yl)amino)-2-oxoethyl benzylsulfamate]
22 | 1 to 10 µM | CNS(=O)(=O)OCC(=O)Nc1nc(C)c(Cc2ccc(C)cc2)s1 [Example 47, 2-((4-methyl-5-(4-methylbenzyl)thiazol-2-yl)amino)-2-oxoethyl methylsulfamate]

The next lines start with the compound.

Row | Compound | IC50
23 | 2-((4-methyl-5-(4-methylbenzyl)thiazol-2-yl)amino)-2-oxoethyl isobutylsulfamate [Example 17] | 10 to 50 µM
24 | CNS(=O)(=O)OCC(=O)Nc1nc(C)c(Cc2ccc3ccccc3c2)s1 [Example 5, 2-((4-methyl-5-(naphthalen-2-ylmethyl)thiazol-2-yl)amino)-2-oxoethyl methylsulfamate] | 1 to 10 µM
25 | CNS(=O)(=O)OCC(=O)Nc1nc(C)c(Cc2ccc(F)c(Cl)c2)s1 [Example 7, 2-((5-(3-chloro-4-fluorobenzyl)-4-methylthiazol-2-yl)amino)-2-oxoethyl methylsulfamate] | ≤ 0.5 µM
26 | COCCNS(=O)(=O)OCC(=O)Nc1nc(C)c(Cc2cccc(Cl)c2)s1 [Example 8, 2-((5-(3-chlorobenzyl)-4-methylthiazol-2-yl)amino)-2-oxoethyl (2-methoxyethyl)sulfamate] | 0.5 to 1 µM
27 | CNS(=O)(=O)OCC(=O)Nc1nc(C)c(Cc2ccccc2C)s1 [Example 11, 2-((4-methyl-5-(2-methylbenzyl)thiazol-2-yl)amino)-2-oxoethyl methylsulfamate] | 10 to 50 µM
28 | Cc1nc(NC(=O)COS(=O)(=O)N(C)C)sc1Cc1cccc(C(F)(F)F)c1 [Example 13, 2-((4-methyl-5-(3-(trifluoromethyl)benzyl)thiazol-2-yl)amino)-2-oxoethyl dimethylsulfamate] | 1 to 10 µM
29 | CNS(=O)(=O)OCC(=O)Nc1nc(C)c(Cc2ccccc2Cl)s1 [Example 16, 2-((5-(2-chlorobenzyl)-4-methylthiazol-2-yl)amino)-2-oxoethyl methylsulfamate] | 1 to 10 µM
30 | Cc1nc(NC(=O)COS(=O)(=O)N(C)C)sc1Cc1ccccc1F [Example 22, 2-((5-(2-fluorobenzyl)-4-methylthiazol-2-yl)amino)-2-oxoethyl dimethylsulfamate] | 1 to 10 µM
31 | Cc1nc(NC(=O)COS(=O)(=O)N(C)C)sc1Cc1ccccc1 [Example 28, 2-((5-benzyl-4-methylthiazol-2-yl)amino)-2-oxoethyl dimethylsulfamate] | 1 to 10 µM
32 | Cc1nc(NC(=O)COS(=O)(=O)N(C)C)sc1CCc1ccccc1 [Example 35, 2-((4-methyl-5-phenethylthiazol-2-yl)amino)-2-oxoethyl dimethylsulfamate] | 10 to 50 µM
33 | CNS(=O)(=O)OCC(=O)Nc1nc(C)c(CCc2ccc(Cl)cc2)s1 [Example 38, 2-((5-(4-chlorophenethyl)-4-methylthiazol-2-yl)amino)-2-oxoethyl methylsulfamate] | 10 to 50 µM
34 | Cc1ccc(Cc2sc(NC(=O)COS(=O)(=O)N(C)Cc3ccccc3)nc2C)cc1 [Example 42, 2-((4-methyl-5-(4-methylbenzyl)thiazol-2-yl)amino)-2-oxoethyl benzyl(methyl)sulfamate] | 1 to 10 µM
35 | CNS(=O)(=O)OCC(=O)Nc1nc(C(F)(F)F)c(Cc2ccc(C)cc2)s1 [Example 44] | 1 to 10 µM
36 | CNS(=O)(=O)OCC(=O)Nc1nc(C)c(Cc2cccc3ccccc23)s1 [Example 48, 2-((4-methyl-5-(naphthalen-1-ylmethyl)thiazol-2-yl)amino)-2-oxoethyl methylsulfamate] | 10 to 50 µM
37 | Cc1nc(NC(=O)COS(=O)(=O)NCCF)sc1Cc1cccc(Cl)c1 [Example 49, 2-((5-(3-chlorobenzyl)-4-methylthiazol-2-yl)amino)-2-oxoethyl (2-fluoroethyl)sulfamate] | 0.5 to 1 µM
